Assays:
[1] = biological target: T1, GLIC (Gloeobacter violaceus, UniProt Q7NDN8); conditions: cited from earlier work; for inhibition of GLIC: at clinical concentration; for nH: Hill number of the inhibition curve; for nH / currents inhibited by up to: EC20 concentration (pH 4.7-5.3) of protons; for IC50: currents elicited by an EC20 concentration (pH 4.7-5.3) of protons; for currents inhibited by up to: maximal inhibition
T1 sequence (Q7NDN8 44-359): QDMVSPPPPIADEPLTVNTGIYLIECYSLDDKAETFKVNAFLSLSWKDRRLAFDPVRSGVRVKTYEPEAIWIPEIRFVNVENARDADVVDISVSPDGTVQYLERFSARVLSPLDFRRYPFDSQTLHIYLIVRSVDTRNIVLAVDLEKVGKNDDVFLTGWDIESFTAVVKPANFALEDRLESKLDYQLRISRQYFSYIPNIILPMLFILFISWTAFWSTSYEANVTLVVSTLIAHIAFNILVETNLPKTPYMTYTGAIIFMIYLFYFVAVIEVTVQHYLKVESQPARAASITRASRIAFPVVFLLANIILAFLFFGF

[2] = tested on: I202A mutated GLIC; experiment: Two-electrode voltage clamp on oocytes, mutant GLIC; assay type: cell-based, Gloebacter violaceus
Protocol: (§1) • Figure 3A. […] Xenopus laevis oocytes, holding potential -60 to -40 mV.
(§2) For desflurane inhibition (figures 3C-3F), full dose-inhibition curves were measured at pH20.

[3] = tested on: I202W mutated GLIC; experiment: as above; assay type: cell-based, Gloebacter violaceus
Protocol: as §1, §2

[4] = tested on: I202Y mutated GLIC; experiment: as above; assay type: cell-based, Gloebacter violaceus
Protocol: as §1, §2

[5] = tested on: T255A mutated GLIC; experiment: as above; assay type: cell-based, Gloebacter violaceus
Protocol: as §1, §2

[6] = tested on: V242M mutated GLIC; experiment: as above; assay type: cell-based, Gloebacter violaceus
Protocol: as §1, §2

[7] = biological target: wild-type GLIC (Gloeobacter violaceus, UniProt Q7NDN8); experiment: cell-based
Protocol: (§3) We monitored the inhibitory action of both anesthetics by two-electrode voltage clamp on oocytes expressing the GLIC channel. A typical experiment consists at activating the GLIC channel by an EC20 concentration of protons for 5 min, a period during which anesthetics are applied for 1min, 1 min after the onset of proton application.

[8] = tested on: I258A mutated GLIC; conditions: activation at pH20 (pH 5.5 to 5.8)
Protocol: as §3
(§4) Key residues contacting or neighboring propofol and desflurane in the 3D structure were mutated to alanine, or to more bulky residues in order to decrease the size of the binding pocket (mutants I202 A,Y,W, V242 A,M,W, T255A and I258A,M). […] Mutants were first characterized by their trace currents and proton dose-response curve (figures 3C-3F).

[9] = tested on: I258M mutated GLIC; conditions: activation at pH20 (pH 5.5 to 5.8)
Protocol: as §3, §4

[10] = tested on: V242A mutated GLIC
Protocol: as §3, §4

[11] = activation at pH20 (pH 5.5 to 5.8), 10 µM propofol (Fig. 3C)
[12] = activation at pH20 (pH 6.5-6.8), 10 µM propofol (Fig. 3C)
[13] = increased sensitivity for propofol

Q: For `CC(O)CC(=O)O` (stereo not shown) [3-hydroxybutyric acid], which “inhibition of GLIC” value [1] is on record?
A: robustly inhibited

Q: What does the source list for `FC(F)OC(F)C(F)(F)F` (stereo not shown) [desflurane, 2-(difluoromethoxy)-1,1,1,2-tetrafluoro-ethane]?
A: desflurane inhibition, full dose-inhibition curve compared with WT ([2]; at pH20): did not alter significantly; desflurane inhibition, full dose-inhibition curve compared with WT ([3]; at pH20): did not alter significantly; desflurane inhibition, full dose-inhibition curve compared with WT ([4]; at pH20): did not alter significantly; desflurane inhibition, full dose-inhibition curve compared with WT ([5]; at pH20, decreased sensitivity toward desflurane): dramatic shift of the curve to the right; desflurane inhibition, full dose-inhibition curve compared with WT ([6]; at pH20): did not alter significantly; nH [1]: 0.24; inhibition of GLIC [1]: robustly inhibited; IC50 [1]: 10 µM; currents inhibited by up to [1]: up to 90%

Q: For `CCOC(=O)c1cncn1[C@H](C)c1ccccc1` [etomidate, ethyl 3-[(1R)-1-phenylethyl]imidazole-4-carboxylate], which “inhibition of GLIC” value [1] is on record?
A: robustly inhibited

Q: Which results are given for `CC(C)c1cccc(C(C)C)c1O` [propofol, 2,6-diisopropylphenol]?
A: inhibition of GLIC ([7]; higher proton concentration (at the EC50)): no longer observed; inhibition at 10 µM ([7]; read-out: inhibition of GLIC): 28%; propofol inhibition compared with WT [2, 11]: not significantly different from WT; propofol inhibition compared with WT [3, 11]: not significantly different from WT; propofol inhibition compared with WT [4, 12]: not significantly different from WT; propofol inhibition compared with WT [5, 12]: more inhibited; propofol dose-inhibition curve compared with wt [5, 13]: shift of the dose-inhibition curve toward the left; propofol inhibition compared with WT [6, 11]: more inhibited; propofol dose-inhibition curve compared with wt [6, 13]: shift of the dose-inhibition curve toward the left; propofol inhibition compared with WT [8]: not significantly different from WT; propofol inhibition compared with WT [9]: not significantly different from WT; propofol inhibition compared with WT ([10]; activation at pH20 (pH 5.5 to 5.8)): more inhibited; propofol dose-inhibition curve compared with wt [10, 13]: shift of the dose-inhibition curve toward the left; nH [1]: 0.39; inhibition of GLIC [1]: robustly inhibited; IC50 [1]: 0.6 µM; currents inhibited by up to [1]: up to 90%

Source: EP2390266A1, “3-D Conformation of GLIC and allosteric modulation thereof” (priority 2010, dated 2011)
